According to US20250092084A1, “C7, C12, AND C16 SUBSTITUTED NEUROACTIVE STEROIDS AND THEIR METHODS OF USE” (Sage Therapeutics, Inc., priority 2016, published 2025):

Molecular target: rat brain cortical membranes (GABA receptor complex, [35S]-TBPS binding)
Test: Steroid inhibition of [35S]-TBPS binding
Details: 3 nM [35S]-TBPS, in the presence of 5 mM GABA
Procedure: [^35S]-t-Butylbicyclophosphorothionate (TBPS) binding assays using rat brain cortical membranes in the presence of 5 mM GABA has been described (Gee et al, J Pharmacol. Exp. Ther. 1987, 241, 346-353; Hawkinson et al, Mol. Pharmacol. 1994, 46, 977-985; Lewin, A. H et al., Mol. Pharmacol. 1989, 35, 189-194).
Briefly, cortices are rapidly removed following decapitation of carbon dioxide-anesthetized Sprague-Dawley rats (200-250 g). The cortices are homogenized in 10 volumes of ice-cold 0.32 M sucrose using a glass/teflon homogenizer and centrifuged at 1500×g for 10 min at 4° C. The resultant supernatants are centrifuged at 10,000×g for 20 min at 4° C. to obtain the P2 pellets. The P2 pellets are resuspended in 200 mM NaCl/50 mM Na—K phosphate pH 7.4 buffer and centrifuged at 10,000×g for 10 min at 4° C. This washing procedure is repeated twice and the pellets are resuspended in 10 volumes of buffer. Aliquots ([…]) of the membrane suspensions are incubated with 3 nM [^35S]-TBPS and […] aliquots of test drug dissolved in dimethyl sulfoxide (DMSO) (final 0.5%) in the presence of 5 mM GABA. The incubation is brought to a final volume of 1.0 mL with buffer. Nonspecific binding is determined in the presence of […] and ranged from 15 to 25%. Following a 90 min incubation at room temp, the assays are terminated by filtration through glass fiber filters (Schleicher and Schuell No. 32) using a cell harvester (Brandel) and rinsed three times with ice-cold buffer. Filter bound radioactivity is measured by liquid scintillation spectrometry. Non-linear curve fitting of the overall data for each drug averaged for each concentration is done using Prism (GraphPad). […] The concentration of test compound producing 50% inhibition (IC50) of specific binding and the maximal extent of inhibition (Imax) are determined for the individual experiments with the same model used for the overall data and then the means±SEMs of the individual experiments are calculated.
Various compounds are or can be screened to determine their potential as modulators of [^35S]-TBPS binding in vitro. These assays are or can be performed in accordance with the above discussed procedures.

Row | Structure (SMILES) | IC50 [nM]
1 | CO[C@@H]1C[C@H]2[C@@H](CC[C@H]3C[C@](C)(O)CC[C@@]32C)[C@@H]2CC[C@H](C#N)[C@@]12C [Compound 41] | 100 to 500
2 | COc1ccc2nnn(CC(=O)[C@H]3[C@H](C)C[C@H]4[C@@H]5CC[C@H]6C[C@](C)(O)CC[C@]6(C)[C@H]5CC[C@@]43C)c2c1 [Compound 68] | 10 to 50
3 | CO[C@@H]1C[C@H]2[C@@H](CC[C@H]3C[C@](C)(O)CC[C@@]32C)[C@@H]2CC[C@H](C(=O)Cn3ncc4ccncc43)[C@@]12C [Compound 63] | 100 to 500
4 | COC[C@H]1C[C@H]2C[C@](C)(O)CC[C@]2(C)[C@H]2CC[C@]3(C)[C@@H](C(=O)Cn4cc(C#N)cn4)CC[C@H]3[C@H]12 [Compound 13] | ≥ 500
5 | CO[C@H]1CC[C@H]2[C@@H]3[C@@H](C)C[C@H]4C[C@](C)(O)CC[C@]4(C)[C@H]3CC[C@]12C [Compound 4] | ≥ 500
6 | CC(=O)[C@H]1CC[C@H]2[C@@H]3[C@@H](C)C[C@H]4C[C@](C)(O)CC[C@]4(C)[C@H]3CC[C@]12C [Compound 6] | ≥ 500
7 | CC[C@@H]1C[C@H]2[C@@H]3CC[C@H]4C[C@](C)(O)CC[C@]4(C)[C@H]3CC[C@]2(C)[C@H]1C(=O)Cn1cc(C#N)cn1 [Compound 74] | ≥ 500
8 | CC(=O)[C@H]1[C@H](C(C)C)C[C@H]2[C@@H]3CC[C@H]4C[C@](C)(O)CC[C@]4(C)[C@H]3CC[C@@]21C [Compound 73] | ≥ 500
9 | C[C@H]1C[C@H]2C[C@](C)(O)CC[C@]2(C)[C@H]2CC[C@]3(C)[C@@H](C(=O)Cn4cc(C#N)cn4)CC[C@H]3[C@H]12 [Compound 39] | 100 to 500
10 | C[C@@]1(O)CC[C@@]2(C)[C@@H](CC[C@@H]3[C@@H]2C[C@@H](O)[C@]2(C)[C@@H](C(=O)Cn4cc5ccncc5n4)CC[C@@H]32)C1 [Compound 49] | 100 to 500
11 | CC[C@@H]1C[C@H]2[C@@H]3CC[C@H]4C[C@](C)(O)CC[C@]4(C)[C@H]3CC[C@]2(C)[C@H]1C(=O)Cn1nc2ccc(OC)cc2n1 [Compound 70] | ≥ 500
12 | COC[C@@H]1C[C@H]2C[C@](C)(O)CC[C@]2(C)[C@H]2CC[C@]3(C)[C@@H](C(=O)Cn4cc(C#N)cn4)CC[C@H]3[C@H]12 [Compound 14] | ≥ 500
13 | C[C@H]1C[C@H]2C[C@](C)(O)CC[C@]2(C)[C@H]2CC[C@]3(C)[C@@H](C(=O)Cn4ncc5ccncc54)CC[C@H]3[C@H]12 [Compound 9] | 100 to 500
14 | C[C@@]1(O)CC[C@@]2(C)[C@@H](CC[C@@H]3[C@@H]2C[C@@H](O)[C@]2(C)[C@@H](C(=O)Cn4cc(C#N)cn4)CC[C@@H]32)C1 [Compound 47] | ≥ 500
15 | CO[C@H]1C[C@H]2[C@@H](CC[C@H]3C[C@](C)(O)CC[C@@]32C)[C@@H]2CC[C@H](C(C)=O)[C@@]12C [Compound 52] | ≥ 500
16 | COc1ccc2nn(CC(=O)[C@H]3[C@H](C(C)C)C[C@H]4[C@@H]5CC[C@H]6C[C@](C)(O)CC[C@]6(C)[C@H]5CC[C@@]43C)nc2c1 [Compound 77] | ≥ 500
17 | CC(=O)[C@H]1[C@H](C)C[C@H]2[C@@H]3CC[C@H]4C[C@](C)(O)CC[C@@H]4[C@H]3CC[C@@]21C (stereo in doubt) [Compound 91] | 10 to 50
18 | CO[C@H]1C[C@H]2[C@@H](CC[C@H]3C[C@](C)(O)CC[C@@]32C)[C@@H]2CC[C@@H](C(C)=O)[C@@]12C [Compound 51] | ≥ 500
19 | C[C@@H]1C[C@H]2[C@@H]3CC[C@H]4C[C@](C)(O)CC[C@]4(C)[C@H]3CC[C@]2(C)[C@H]1C(=O)Cn1cc(C#N)cn1 [Compound 66] | 10 to 50
